Measurements published in US20200316213A1, “MACROMOLECULAR PLATFORM FOR TARGETING SCAVENGER RECEPTOR A1” (THE UNITED STATES OF AMERICA, AS REPRESENTED BY THE …, priority 2017, published 2020).

Columns and labels:
[1] = target: T1, scavenger receptor A1 (Mus musculus, UniProt P30204); experiment: Competitive inhibition of polymer-488 cell uptake by poly I / poly C in Raw 264.7 macrophages; format: cell-based; conditions: for inhibition of scavenger receptor interaction of polymer-488 (fluorescence): various concentrations of polymer-488 with inhibitor, Raw 264.7 macrophages (FIG. 3); for inhibition of polymer-488 fluorescence: various inhibitor concentrations, polymer-488 concentration constant, 37° C. 3 hours (FIG. 4)
T1 construct: endogenous in cells; host or cells: Raw 264.7 macrophages
T1 sequence (P30204 1-458): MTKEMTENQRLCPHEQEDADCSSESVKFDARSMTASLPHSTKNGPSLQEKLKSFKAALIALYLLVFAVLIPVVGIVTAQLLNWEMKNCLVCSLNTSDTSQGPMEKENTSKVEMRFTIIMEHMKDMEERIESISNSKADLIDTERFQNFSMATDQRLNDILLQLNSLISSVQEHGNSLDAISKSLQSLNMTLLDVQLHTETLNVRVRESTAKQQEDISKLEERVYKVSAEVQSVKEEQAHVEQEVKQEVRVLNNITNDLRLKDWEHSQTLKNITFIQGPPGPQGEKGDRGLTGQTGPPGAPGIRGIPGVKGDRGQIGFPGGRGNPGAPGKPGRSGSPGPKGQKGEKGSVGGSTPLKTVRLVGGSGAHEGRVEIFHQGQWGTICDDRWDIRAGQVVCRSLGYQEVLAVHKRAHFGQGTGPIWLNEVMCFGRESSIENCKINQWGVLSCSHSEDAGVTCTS
Protocol: The fluorescently labelled poly(L-lysine succinylated) was also tested for cell uptake in a macrophage cell line Raw 264.7 in the presence of competitive inhibitors and relevant controls. […] At higher concentrations of polymer-488, fluorescence is seen due to competing off the poly I.
In a follow up study, cells were treated with various concentrations of either poly I or poly C while polymer-488 concentration remained constant. In this study, Raw 264.7 cells were incubated overnight at 400,000 cells/mL. The cells were treated with various concentrations of polymer-488 and either 200 μg/mL poly I, 200 μg/mL poly C, or no inhibitor. The cells were incubated at 37° C. for 3 hours, washed 3 times with media, and fluorescence measured.

[2] = male, Sprague-Dawley, rat, in vivo, iv, 10 mg/kg
[3] = in vivo; conditions: male, Sprague-Dawley, rat, iv, 10 mg/kg

polyinosinic acid [poly I]
inhibition of scavenger receptor interaction of polymer-488 (fluorescence) [1]: inhibition of scavenger receptor interaction
inhibition of polymer-488 fluorescence [1]: dose-dependent inhibition

Nc1nc(=O)n([C@@H]2CS[C@H](CO)O2)cc1F [Emtricitabine, emtricitabine]
Tlast [2]: 96 h
Tmax [3]: 4 h
Cmax ([3]; Cmax): 86.7 ng/g

polycytidylic acid [poly C]
inhibition of scavenger receptor interaction of polymer-488 (fluorescence) [1]: not with poly C
inhibition of polymer-488 fluorescence [1]: virtually no inhibition of fluorescence
